Values quoted from earlier work, collected in patent publication EP3297603B1, “CINEOLE-CONTAINING AQUEOUS COMPOSITION FOR NASAL APPLICATION” (Maria Clementine Martin Klosterfrau Vertriebsgesellschaft …, priority 2015, dated 2017).

Conditions: general property, reference to RÖMPP Chemielexikon

## CC12CCC(CC1)C(C)(C)O2 [1,8-Cineol, 1,3,3-Trimethyl-2-oxabicyclo[2.2.2]octan]
  Löslichkeit in Wasser: in Wasser unlöslich
